Experimental data reported in patent US4582823A, “Method for treating schizophrenia and medicaments therefor” (Warner-Lambert Company, priority 1984, dated 1986).
“Also recorded” adds a separate entry of the source. Where two headings read alike, the source gives them in different places.

Legend:
Sprague-Dawley male rats = test: rat locomotor activity (darkened actophotometer, 30 minutes); type: in vivo; settings: for Locomotor Activity, % Of Control ± SEM: 1 hr before test
Procedure: Sprague-Dawley male rats were used.
Each animal was then placed in a darkened actophotometer and locomotor activity was recorded automatically by a microcomputer for 30 minutes. Locomotor activity data were compared to the mean response of vehicle treated control and were expressed as percentage of activity relative to control.

[1] = system: haloperidol-induced dystonia in Cebus monkeys; settings: for # showing dystonia/Total: time 0
Procedure: (§1) On test days, animals were given N^6 -(2,2-diphenylethyl)adenosine before or after haloperidol. Drugs were prepared as suspensions in 0.2% Methocel for oral and IP injection. Solutions for IM injections of haloperidol were made using lactic acid and of the adenosine using ethanol.

[2] = system: haloperidol-induced dystonia in Cebus monkeys; test: Effect of N^6-(2,2-diphenylethyl)adenosine and haloperidol given together orally (capsule or gavage) on dystonia in Cebus monkeys; settings: for # showing dystonia/Total: haloperidol 0.5 PO capsule, time 0
Procedure: as §1

[3] = system: haloperidol-induced dystonia in Cebus monkeys; test: Attempted reversal of haloperidol-induced dystonia in sensitized Cebus monkeys; type: in vivo, Cebus monkeys (Cebus appella); settings: for # Reversed/Total: adenosine 8 mpk IM
Procedure: as §1

O=C(CCCN1CCC(O)(c2ccc(Cl)cc2)CC1)c1ccc(F)cc1 [Haloperidol, reference compound]
Locomotor Activity, % Of Control ± SEM (Sprague-Dawley male rats; oral, Vehicle 5 ml/kg + HPD 0.1 mg/kg, n=8 (run with 3 mg/kg adenosine)): 80.4 ± 10.2 % Of Control
Locomotor Activity, % Of Control ± SEM (Sprague-Dawley male rats; oral, Vehicle 5 ml/kg + HPD 0.1 mg/kg, n=9 (run with 1 mg/kg adenosine)): 108.6 ± 8.6 % Of Control
Locomotor Activity, % Of Control ± SEM (Sprague-Dawley male rats; oral, Vehicle 5 ml/kg + HPD 0.3 mg/kg, n=9 (run with 1 mg/kg adenosine)): 46.0 ± 7.2 % Of Control
Locomotor Activity, % Of Control ± SEM (Sprague-Dawley male rats; oral, Vehicle 5 ml/kg + HPD 0.3 mg/kg, n=17 (run with 3 mg/kg adenosine)): 44.0 ± 4.5 % Of Control
Locomotor Activity, % Of Control ± SEM (Sprague-Dawley male rats; oral, Vehicle 5 ml/kg + HPD 1.0 mg/kg, n=9 (run with 1 mg/kg adenosine)): 21.8 ± 2.9 % Of Control
Locomotor Activity, % Of Control ± SEM (Sprague-Dawley male rats; oral, Vehicle 5 ml/kg + HPD 1.0 mg/kg, n=17 (run with 3 mg/kg adenosine)): 18.0 ± 2.5 % Of Control
Locomotor Activity, % Of Control ± SEM (Sprague-Dawley male rats; oral, Vehicle 5 ml/kg + HPD 3.0 mg/kg, n=9 (run with 3 mg/kg adenosine)): 8.2 ± 2.1 % Of Control
dystonic reactions in sensitized monkeys ([1]; Cebus monkey, haloperidol 0.2 mpk PO): dystonic reactions were consistently manifest
# showing dystonia/Total ([1]; adenosine 0 mpk IP, haloperidol 0.05 mpk IM, +30 Min.): 5/5
onset of action (dystonia) ([1]; monkey, in vivo): 3 to 7 min
onset of action (dystonia) ([1]; monkey, in vivo, po): 60 to 180 min
monkeys with dystonia ([2]; haloperidol alone 0.5 mg/kg in a capsule): 5 of 5
# showing dystonia/Total ([2]; no adenosine): 5/5

OC[C@H]1O[C@@H](n2cnc3c(NCC(c4ccccc4)c4ccccc4)ncnc32)[C@H](O)[C@@H]1O [N^6-(2,2-Diphenylethyl)adenosine]
effect on haloperidol induced inhibition of rat locomotor activity (conclusion) (Sprague-Dawley male rats; combination with haloperidol): enhanced haloperidol induced inhibition of rat locomotor activity; also recorded: additive effect in combination with haloperidol
Locomotor Activity, % Of Control ± SEM (Sprague-Dawley male rats; oral, adenosine 1 mg/kg + HPD 0.1 mg/kg, n=9): 92.0 ± 2.8 % Of Control
Locomotor Activity, % Of Control ± SEM (Sprague-Dawley male rats; oral, adenosine 1 mg/kg + HPD 0.3 mg/kg, n=9): 40.7 ± 4.9 % Of Control
Locomotor Activity, % Of Control ± SEM (Sprague-Dawley male rats; oral, adenosine 1 mg/kg + HPD 1.0 mg/kg, n=9): 10.8 ± 2.6 % Of Control
Locomotor Activity, % Of Control ± SEM (Sprague-Dawley male rats; oral, adenosine 1 mg/kg + Vehicle 5 ml/kg, n=9): 93.8 ± 8.9 % Of Control
Locomotor Activity, % Of Control ± SEM (Sprague-Dawley male rats; oral, adenosine 3 mg/kg + HPD 0.1 mg/kg, n=8): 49.1 ± 10.0 % Of Control
Locomotor Activity, % Of Control ± SEM (Sprague-Dawley male rats; oral, adenosine 3 mg/kg + HPD 0.3 mg/kg, n=17): 21.6 ± 5.0 % Of Control
Locomotor Activity, % Of Control ± SEM (Sprague-Dawley male rats; oral, adenosine 3 mg/kg + HPD 1.0 mg/kg, n=17): 9.8 ± 2.1 % Of Control
Locomotor Activity, % Of Control ± SEM (Sprague-Dawley male rats; oral, adenosine 3 mg/kg + HPD 3.0 mg/kg, n=9): 4.3 ± 1.3 % Of Control
Locomotor Activity, % Of Control ± SEM (Sprague-Dawley male rats; oral, adenosine 3 mg/kg + Vehicle 5 ml/kg, n=17): 58.7 ± 5.2 % Of Control
alteration of haloperidol-induced inhibition of spontaneous locomotion (Sprague-Dawley male rats; oral, adenosine 1.0 mg/kg + haloperidol): did not significantly alter the dose-related inhibition of spontaneous locomotion caused by haloperidol
enhancement of haloperidol locomotor inhibition (Sprague-Dawley male rats; oral, adenosine 3.0 mg/kg + haloperidol 0.1 and 0.3 mg/kg): enhanced the locomotor inhibition
alteration of locomotion (Sprague-Dawley male rats; oral, adenosine alone 1.0 mg/kg): did not significantly alter locomotion
reduction of locomotion (Sprague-Dawley male rats; oral, adenosine alone 3.0 mg/kg): 50%
effect on severity of established dystonia ([3]; Cebus monkey, adenosine 8 mpk IM after dystonias induced by haloperidol (IM or PO)): no effect on the severity of dystonia
reversal of ongoing dystonia (conclusion) ([3]; Cebus monkey, adenosine IM): did not reverse ongoing dystonia induced by haloperidol
# Reversed/Total ([3]; +30 Min. after haloperidol 0.05 IM): 0/6
# Reversed/Total ([3]; +90 Min. after haloperidol 0.5 PO): 0/6
animals in which haloperidol-induced dystonia was not blocked ([1]; Cebus monkey, adenosine 8 mg/kg IM, haloperidol 0.5 mg/kg PO): 3/6
blocking of haloperidol-induced dystonia by IM route (in words) ([1]; Cebus monkey, adenosine IM versus other routes): less effective in blocking haloperidol-induced dystonia than when administered by other routes
intensity of dystonia in animals displaying dystonia after combined treatment ([1]; Cebus monkey, adenosine IP + haloperidol, relative to absence of the adenosine): less intense than those seen in the absence of the adenosine
prevention of development of dystonia (in words) ([1]; Cebus monkey, adenosine IP together with haloperidol PO): prevented the development of dystonia in a dose dependent fashion
# showing dystonia/Total ([1]; adenosine 0.5 mpk IP, haloperidol 0.5 mpk PO): 5/5
# showing dystonia/Total ([1]; adenosine 1.5 mpk IP, haloperidol 0.5 mpk PO): 4/6
# showing dystonia/Total ([1]; adenosine 5 mpk IP, haloperidol 0.05 mpk IM, +30 Min.): 0/6
# showing dystonia/Total ([1]; adenosine 5 mpk IP, haloperidol 0.5 mpk PO): 1/6
# showing dystonia/Total ([1]; adenosine 20 mpk IP, haloperidol 0.05 mpk IM, +30 Min.): 0/6
# showing dystonia/Total ([1]; adenosine 20 mpk IP, haloperidol 0.5 mpk PO): 0/6
depression induced by the adenosine ([1]; monkey, in vivo): induced depression prior to the expected time of onset of the effects of haloperidol
onset of action (depression) ([1]; monkey, in vivo, ip): 5 to 10 min
prevention of dystonia (conclusion) ([1]; sensitized Cebus monkeys, adenosine administered prior to haloperidol): prevented the dystonia normally produced by haloperidol
effect on development or severity of dystonias (in words) ([2]; Cebus monkey, adenosine together with haloperidol orally by capsule): did not appreciably affect the development or severity of dystonias
animals with marked reduction in the severity of dystonia ([2]; adenosine 5 mg/kg PO + haloperidol 0.5 mg/kg in a solution by gavage): 4 of 5
# showing dystonia/Total ([2]; adenosine 5 mpk PO capsule): 5/6
prevention of dystonia, same capsule (conclusion) ([2]; adenosine and haloperidol in the same capsule): did not prevent dystonia induced by haloperidol
monkeys with dystonia ([2]; haloperidol 0.5 mg/kg with adenosine 5 mg/kg in a capsule): 5 of 6
severity of dystonia, gavage (conclusion) ([2]; solution of adenosine and haloperidol by gavage): reduced severity of dystonia
